Test results published in the supplement of paper PMC10307832.

Columns and labels:
Experiment in all cases: relative viability (nuclei count vs DMSO), 5 days (fraction); higher = more cells survive
NCI-H661 = system: NCI-H661
Method in brief: (§1)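 Lung cancer cell lines were seeded in 1536-well plates and dosed by pin tool the next day, with either a single drug or a fixed anchor-drug dose combined with five library-drug doses (not always all listed) spaced in √10 steps. Five days later, one step fixed the cells and stained their nuclei (final 0.05% Triton X-100, 1% formaldehyde, 1 ug/ml Hoechst), and nuclei were counted on 4× images. Relative viability is the nuclei count in treated wells divided by the count in vehicle wells, and each value is the median of duplicate plates.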

NCI-H1651 = system: NCI-H1651
Method in brief: as §1

NCI-H2085 = system: NCI-H2085
Method in brief: as §1

NCI-H2087 = system: NCI-H2087
Method in brief: as §1

NCI-H322M = system: NCI-H322M
Method in brief: as §1

PC-14 = system: PC-14
Method in brief: as §1

PC-3 [JPC-3] = system: PC-3 [JPC-3]
Method in brief: as §1

H3255 = system: H3255
Method in brief: as §1

CAL-12T = system: CAL-12T
Method in brief: as §1

LCLC-97TM1 = system: LCLC-97TM1
Method in brief: as §1

NCI-H1666 = system: NCI-H1666
Method in brief: as §1

NCI-H1395 = system: NCI-H1395
Method in brief: as §1

LK-2 = system: LK-2
Method in brief: as §1

SK-MES-1 = system: SK-MES-1
Method in brief: as §1

NCI-H1355 = system: NCI-H1355
Method in brief: as §1

A-427 = system: A-427
Method in brief: as §1

UMC-11 = system: UMC-11
Method in brief: as §1

NCI-H1792 = system: NCI-H1792
Method in brief: as §1

NCI-H358 = system: NCI-H358
Method in brief: as §1

NCI-H2228 = system: NCI-H2228
Method in brief: as §1

NCI-H838 = system: NCI-H838
Method in brief: as §1

NCI-H1915 = system: NCI-H1915
Method in brief: as §1

Cc1cnc(-c2cnc(NCCNc3ccc(C#N)cn3)nc2-c2ccc(Cl)cc2Cl)[nH]1 + CC(=O)Nc1cccc(-n2c(=O)n(C3CC3)c(=O)c3c(Nc4ccc(I)cc4F)n(C)c(=O)c(C)c32)c1 [Trametinib] (partner 0.02 µM)
relative viability (NCI-H661; first compound 0.08 µM): 0.606 | relative viability (NCI-H661; first compound 0.253 µM): 0.537 | relative viability (NCI-H661; first compound 0.8 µM): 0.68 | relative viability (NCI-H661; first compound 2.53 µM): 0.681 | relative viability (NCI-H1651; first compound 0.08 µM): 0.855 | relative viability (NCI-H1651; first compound 0.253 µM): 0.706 | relative viability (NCI-H1651; first compound 0.8 µM): 0.74 | relative viability (NCI-H1651; first compound 2.53 µM): 0.864 | relative viability (NCI-H2085; first compound 0.08 µM): 0.596 | relative viability (NCI-H2085; first compound 0.253 µM): 0.524 | relative viability (NCI-H2085; first compound 0.8 µM): 0.52 | relative viability (NCI-H2085; first compound 2.53 µM): 0.604 | relative viability (NCI-H2087; first compound 0.08 µM): 0.203 | relative viability (NCI-H2087; first compound 0.8 µM): 0.214 | relative viability (NCI-H2087; first compound 2.53 µM): 0.177 | relative viability (NCI-H322M; first compound 0.08 µM): 0.563 | relative viability (NCI-H322M; first compound 0.253 µM): 0.558 | relative viability (NCI-H322M; first compound 0.8 µM): 0.468 | relative viability (NCI-H322M; first compound 2.53 µM): 0.516 | relative viability (PC-14; first compound 0.08 µM): 0.961 | relative viability (PC-14; first compound 0.253 µM): 0.713 | relative viability (PC-14; first compound 0.8 µM): 0.904 | relative viability (PC-14; first compound 2.53 µM): 0.825 | relative viability (PC-3 [JPC-3]; first compound 0.08 µM): 0.75 | relative viability (PC-3 [JPC-3]; first compound 0.253 µM): 0.646 | relative viability (PC-3 [JPC-3]; first compound 0.8 µM): 0.774 | relative viability (PC-3 [JPC-3]; first compound 2.53 µM): 0.703 | relative viability (H3255; first compound 0.08 µM): 0.794 | relative viability (H3255; first compound 0.253 µM): 0.583 | relative viability (H3255; first compound 0.8 µM): 0.663 | relative viability (H3255; first compound 2.53 µM): 0.668 | relative viability (CAL-12T; first compound 0.08 µM): 0.357 | relative viability (CAL-12T; first compound 0.253 µM): 0.306 | relative viability (CAL-12T; first compound 0.8 µM): 0.333 | relative viability (CAL-12T; first compound 2.53 µM): 0.348 | relative viability (LCLC-97TM1; first compound 0.08 µM): 0.201 | relative viability (LCLC-97TM1; first compound 0.253 µM): 0.193 | relative viability (LCLC-97TM1; first compound 0.8 µM): 0.18 | relative viability (LCLC-97TM1; first compound 2.53 µM): 0.214 | relative viability (NCI-H1666; first compound 0.08 µM): 0.864 | relative viability (NCI-H1666; first compound 0.253 µM): 0.797 | relative viability (NCI-H1666; first compound 0.8 µM): 0.957 | relative viability (NCI-H1666; first compound 2.53 µM): 0.821 | relative viability (NCI-H1395; first compound 0.08 µM): 1.22 | relative viability (NCI-H1395; first compound 0.253 µM): 0.715 | relative viability (NCI-H1395; first compound 0.8 µM): 1.03 | relative viability (NCI-H1395; first compound 2.53 µM): 0.924 | relative viability (LK-2; first compound 0.08 µM): 0.834 | relative viability (LK-2; first compound 0.253 µM): 0.833 | relative viability (LK-2; first compound 0.8 µM): 0.841 | relative viability (LK-2; first compound 2.53 µM): 0.955 | relative viability (SK-MES-1; first compound 0.08 µM): 0.548 | relative viability (SK-MES-1; first compound 0.253 µM): 0.54 | relative viability (SK-MES-1; first compound 0.8 µM): 0.676 | relative viability (SK-MES-1; first compound 2.53 µM): 0.619 | relative viability (NCI-H1355; first compound 0.08 µM): 0.396 | relative viability (NCI-H1355; first compound 0.253 µM): 0.384 | relative viability (NCI-H1355; first compound 0.8 µM): 0.41 | relative viability (NCI-H1355; first compound 2.53 µM): 0.409 | relative viability (A-427; first compound 0.08 µM): 0.814 | relative viability (A-427; first compound 0.253 µM): 0.792 | relative viability (A-427; first compound 0.8 µM): 0.827 | relative viability (A-427; first compound 2.53 µM): 0.837 | relative viability (UMC-11; first compound 0.08 µM): 0.891 | relative viability (UMC-11; first compound 0.253 µM): 0.525 | relative viability (UMC-11; first compound 0.8 µM): 0.377 | relative viability (UMC-11; first compound 2.53 µM): 0.82 | relative viability (NCI-H1792; first compound 0.08 µM): 0.525 | relative viability (NCI-H1792; first compound 0.253 µM): 0.437 | relative viability (NCI-H1792; first compound 0.8 µM): 0.472 | relative viability (NCI-H1792; first compound 2.53 µM): 0.349 | relative viability (NCI-H358; first compound 0.08 µM): 0.147 | relative viability (NCI-H358; first compound 0.253 µM): 0.143 | relative viability (NCI-H358; first compound 0.8 µM): 0.136 | relative viability (NCI-H358; first compound 2.53 µM): 0.13 | relative viability (NCI-H2228; first compound 0.08 µM): 0.526 | relative viability (NCI-H2228; first compound 0.253 µM): 0.511 | relative viability (NCI-H2228; first compound 0.8 µM): 0.506 | relative viability (NCI-H2228; first compound 2.53 µM): 0.42 | relative viability (NCI-H838; first compound 0.08 µM): 0.577 | relative viability (NCI-H838; first compound 0.253 µM): 0.499 | relative viability (NCI-H838; first compound 0.8 µM): 0.591 | relative viability (NCI-H838; first compound 2.53 µM): 0.685 | relative viability (NCI-H1915; first compound 0.08 µM): 0.308 | relative viability (NCI-H1915; first compound 0.8 µM): 0.29 | relative viability (NCI-H1915; first compound 2.53 µM): 0.299
